Article PMC6881558 (Biochimica et biophysica acta. General subjects, 2019)
Where “and” joins values, the source holds several entries; their conditions need not be identical. Equal entries are not always repeated.

Columns and labels:
Pfs = Pfs (Borrelia burgdorferi, UniProt O50162); test: UV spectrophotometric MTN activity and kinetics assay, Pfs; type: biochemical; settings: pH 5, mean ± SEM; for Km: substrate kinetics
Bgp = Bgp (Borrelia burgdorferi, UniProt Q9F952); test: UV spectrophotometric MTN activity and kinetics assay, Bgp; type: biochemical; settings: pH 7, mean ± SEM; for Km: substrate kinetics
MtnN = MtnN (Borrelia burgdorferi, UniProt O50860); test: UV spectrophotometric MTN activity and kinetics assay, MtnN; type: biochemical; settings: pH 7, mean ± SEM; for Km: substrate kinetics
Trichomonas vaginalis = settings: cultured parasites; cited from earlier work
[1] = system: B. burgdorferi strain N40; test: BacTiter-Glo bioluminescent cell viability assay; type: cell-based, Borrelia burgdorferi; settings: Borreliella burgdorferi, N40, 24 h, read-out: IC50 (cell viability)
Plasmodium falciparum = settings: purine-less cell death in malarial cultures; cited from earlier work
[2] = system: C[C@H]1O[C@@H](n2cnc3c(N)ncnc32)[C@H](O)[C@@H]1O; test: UV spectrophotometric MTN activity and kinetics assay, Bgp; type: biochemical, Borrelia burgdorferi; settings: other: Bgp, substrate kinetics, pH 7, mean ± SEM
[3] = substrate: C[C@H]1O[C@@H](n2cnc3c(N)ncnc32)[C@H](O)[C@@H]1O; test: UV spectrophotometric MTN activity and kinetics assay, Pfs; type: biochemical, Borrelia burgdorferi; settings: other: Pfs, substrate kinetics, pH 5, mean ± SEM
[4] = substrate: C[C@H]1O[C@@H](n2cnc3c(N)ncnc32)[C@H](O)[C@@H]1O; test: UV spectrophotometric MTN activity and kinetics assay, MtnN; type: biochemical, Borrelia burgdorferi; settings: other: MtnN, substrate kinetics, pH 7, mean ± SEM

Which kcat (Pfs) does the source give for 5’-methylthioadenosine [MTA] here?
Its kcat is 1.78 ± 0.05 s⁻¹.

And the Km (Pfs)?
Its Km is 0.61 ± 0.16 µM.

And the kcat (Bgp)?
Its kcat is 1.85 ± 0.333 s⁻¹.

And the Km (Bgp)?
Its Km is 0.49 ± 0.01 µM.

What about the kcat (MtnN) of the same molecule?
The kcat was 1.55 ± 0.083 s⁻¹.

And the Km (MtnN)?
Its Km is 9.1 µM and 9.09 µM.

For `Nc1nc(F)nc2c1ncn2[C@H]1C[C@H](O)[C@@H](CO)O1` [2-fluoro-2’-deoxyadenosine], which IC50 (Trichomonas vaginalis) is on record?
The IC50 was 106 nM.

For `CCCCSCC1CN(Cc2c[nH]c3c(N)ncnc23)CC1O` (centres unmarked) [BuT-DADMe-ImmA, 1-[(9-deazaadenin-9-yl)methyl]-3-hydroxy-4-(butylthiomethyl)pyrrolidine], which IC50 [1] is on record?
The IC50 was 0.38 µg/mL and ~100 nM.

For `Nc1ncnc2c(C3N[C@H](CO)[C@@H](O)[C@H]3O)c[nH]c12` (some centres unmarked) [Immucillin-A (ImmA), Immucillin-A], which IC50 (Plasmodium falciparum) is on record?
The IC50 was 35 nM.

Which IC50 [1] does the source give for `CSCC1CN(Cc2c[nH]c3c(N)ncnc23)CC1O` (centres unmarked) [MT-DADMe-ImmA, 1-[(9-deazaadenin-9-yl)methyl]-3-hydroxy-4-(methylthiomethyl) pyrrolidine] here?
Its IC50 is 0.31 µg/mL and ~100 nM.

For `Nc1ncnc2c1ncn2[C@@H]1O[C@H](CSCC[C@H](N)C(=O)O)[C@@H](O)[C@H]1O` [SAH, S-adenosylhomocysteine], which kcat (Pfs) is on record?
Its kcat is 1.57 ± 0.083 s⁻¹.

And the Km (Pfs)?
The Km was 0.75 ± 0.16 µM.

What about the kcat (Bgp) of the same molecule?
The kcat was 1.75 ± 0.2 s⁻¹.

What about the Km (Bgp) of the same molecule?
The Km was 1.96 ± 0.67 µM.

What about the kcat (MtnN) of the same molecule?
The kcat was 0.55 ± 0.017 s⁻¹.

What about the Km (MtnN) of the same molecule?
Its Km is 2.04 ± 0.44 µM.

For `CC1(C)S[C@@H]2[C@H](NC(=O)[C@H](N)c3ccccc3)C(=O)N2[C@H]1C(=O)O` [ampicillin], which IC50 [1] is on record?
The IC50 was 1.07 µg/mL and 3.01 µM.

For Bgp (Borreliella burgdorferi), which Km [2] is on record?
Its Km is 1.79 ± 0.52 µM.

What about the kcat [2] of the same molecule?
The kcat was 1.53 ± 0.467 s⁻¹.

What about the kcat/Km [2] of the same molecule?
Its kcat/Km is 850000 ± 267000 M⁻¹ s⁻¹.

B1: Pfs (Borreliella burgdorferi B31) (protein)
chain: MILIISAMQEESEEINKILDNKEEIVLNDYLENKKIYKGKILGKDVISLTTGIGKVNAATWSSQIISKYKITHIINSGSSGGIKENSNLKILDIIVSSETAYYDFDLTKFGHKIGQVPNLPQKFKADEELLKKVANIVDNKLLNIDIHIGLILTGDQFVDNEKNLETIKKNFKDALAVDMEGAAIAQVAHIFKIPFIIIRSISDLPNNKDNHIDFNKFLKTSSINSSKMTKELIRLI
Which Km [3] does the source give for B1 here?
Its Km is 1.37 ± 0.37 µM.

And the kcat [3]?
The kcat was 2.7 ± 0.15 s⁻¹.

What about the kcat/Km [3] of the same molecule?
Its kcat/Km is 1.97e+06 ± 400000 M⁻¹ s⁻¹.

B2: MtnN (Borreliella burgdorferi B31) (protein)
chain: NESKINTPNENSQSNILIISATKAEIEEINKIIQNKKYISIEEHRRKKKIAIGKLMDHNIITIATGVGKINTALWTSYIISKYKISHIINAGVASGIYSDKNKFIKIGDVVISTETTSYDFDLHRFGYEIGHVPEHPKKFKANTALIRKTSKIKINNITSYMGLIITGDQFIDHQTFQEIPEEFENAIAIDMESAAMAQVAYGFKIPFIIIRGISDIVNNENNYDDYKKFLKKASSSSAKIVENLIKLM
What does the source list for B2?
Km [4]: 10.5 µM and 10.46 ± 0.75 µM; kcat [4]: 0.733 ± 0.0167 s⁻¹; kcat/Km [4]: 66700 ± 5000 M⁻¹ s⁻¹
